Tests used:
Assay in all cases: cells
Assay type in all cases: functional, cell-based, Homo sapiens
[1] = system: COLO-800; details: Homo sapiens, COLO-800;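 also: growth inhibition of COLO-800 cells, read out with a cell viability assay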
Description: SANGER: Inhibition of human COLO-800 cell growth in a cell viability assay.

[2] = system: COR-L88; details: Homo sapiens, COR-L88;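 also: growth inhibition of COR-L88 cells, read out with a cell viability assay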
Description: SANGER: Inhibition of human COR-L88 cell growth in a cell viability assay.

[3] = system: D-392MG; details: Homo sapiens, D-392MG
[4] = system: DEL; details: Homo sapiens, DEL;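 also: growth inhibition of the human DEL cell line, read out with a cell viability assay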
Description: SANGER: Inhibition of human DEL cell growth in a cell viability assay.

[5] = system: DOHH-2; details: Homo sapiens, DOHH-2;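 also: growth inhibition of human DOHH-2 cells, read out with a cell viability assay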
Description: SANGER: Inhibition of human DOHH-2 cell growth in a cell viability assay.

[6] = system: ES5; details: Homo sapiens, ES5;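 also: growth inhibition of human ES5 cells, read out by a cell viability assay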
Description: SANGER: Inhibition of human ES5 cell growth in a cell viability assay.

[7] = system: ES6; details: Homo sapiens, ES6;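 also: growth inhibition of human ES6 cells, read out with a cell viability assay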
Description: SANGER: Inhibition of human ES6 cell growth in a cell viability assay.

[8] = system: ES7; details: Homo sapiens, ES7;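 also: growth inhibition of cultured human ES7 cells, read out as cell viability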
Description: SANGER: Inhibition of human ES7 cell growth in a cell viability assay.

[9] = system: EW-13; details: Homo sapiens, EW-13;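 also: growth inhibition of EW-13 cells, read out with a cell viability assay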
Description: SANGER: Inhibition of human EW-13 cell growth in a cell viability assay.

[10] = system: EOL1; details: Homo sapiens, EOL1;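 also: growth inhibition of EoL-1 cells, read out by a cell viability assay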
Description: SANGER: Inhibition of human EoL-1-cell cell growth in a cell viability assay.

[11] = system: HCC2218; details: Homo sapiens, HCC2218;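 also: cell viability assay read-out, with IC50 given as the concentration that inhibits growth of the cell line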
Description: SANGER: Inhibition of human HCC2218 cell growth in a cell viability assay.

[12] = system: HCE-4; details: Homo sapiens, HCE-4;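 also: cell viability assay measuring inhibition of growth in the human HCE-4 cell line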
Description: SANGER: Inhibition of human HCE-4 cell growth in a cell viability assay.

[13] = system: HDLM-2; details: Homo sapiens, HDLM-2;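 also: cell viability assay measuring suppression of HDLM-2 proliferation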
Description: SANGER: Inhibition of human HDLM-2 cell growth in a cell viability assay.

[14] = system: HL-60; details: Homo sapiens, HL-60;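 also: growth inhibition of human HL-60 cells, read out with a cell viability assay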
Description: SANGER: Inhibition of human HL-60 cell growth in a cell viability assay.

[15] = system: K562; details: Homo sapiens, K562
Description: SANGER: Inhibition of human K-562 cell growth in a cell viability assay.

[16] = system: KS-1; details: Homo sapiens, KS-1;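 also: growth inhibition of KS-1 cells, read out with a cell viability assay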
Description: SANGER: Inhibition of human KS-1 cell growth in a cell viability assay.

[17] = system: LAMA-84; details: Homo sapiens, LAMA-84;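 also: growth inhibition of LAMA-84 cells, read out with a cell viability assay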
Description: SANGER: Inhibition of human LAMA-84 cell growth in a cell viability assay.

[18] = system: LB2518-MEL; details: Homo sapiens, LB2518-MEL;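 also: growth inhibition of human LB2518-MEL cells, measured with a cell viability assay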
Description: SANGER: Inhibition of human LB2518-MEL cell growth in a cell viability assay.

[19] = system: LB831-BLC; details: Homo sapiens, LB831-BLC;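 also: growth inhibition of LB831-BLC cells, read out with a cell viability assay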
Description: SANGER: Inhibition of human LB831-BLC cell growth in a cell viability assay.

[20] = system: Lu-65; details: Homo sapiens, Lu-65;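 also: growth inhibition of Lu-65 cancer cells, read out by a cell viability assay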
Description: SANGER: Inhibition of human LU-65 cell growth in a cell viability assay.

[21] = system: LXF-289 cell line; details: Homo sapiens, LXF-289
Description: SANGER: Inhibition of human LXF-289 cell growth in a cell viability assay.

[22] = system: MLMA; details: Homo sapiens, MLMA;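 also: growth inhibition of MLMA cells (human), determined through a cell viability readout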
Description: SANGER: Inhibition of human MLMA cell growth in a cell viability assay.

[23] = system: MN-60; details: Homo sapiens, MN-60;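 also: growth inhibition of the MN-60 cell line, determined with a cell viability assay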
Description: SANGER: Inhibition of human MN-60 cell growth in a cell viability assay.

[24] = system: MZ1-PC; details: Homo sapiens, MZ1-PC;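 also: cell viability assay measuring growth inhibition of human MZ1-PC cells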
Description: SANGER: Inhibition of human MZ1-PC cell growth in a cell viability assay.

[25] = system: NB13; details: Homo sapiens, NB13;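 also: cell viability readout measuring growth inhibition of human NB13 cells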
Description: SANGER: Inhibition of human NB13 cell growth in a cell viability assay.

[26] = system: NB17; details: Homo sapiens, NB17;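 also: growth inhibition of NB17 cells, read out with a cell viability assay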
Description: SANGER: Inhibition of human NB17 cell growth in a cell viability assay.

[27] = system: NB6; details: Homo sapiens, NB6;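 also: growth inhibition of NB6 cells, read out by a cell viability assay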
Description: SANGER: Inhibition of human NB6 cell growth in a cell viability assay.

[28] = system: NCI-H1092; details: Homo sapiens, NCI-H1092;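 also: cell growth inhibition measured with a cell viability assay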
Description: SANGER: Inhibition of human NCI-H1092 cell growth in a cell viability assay.

[29] = system: NCI-H1299; details: Homo sapiens, NCI-H1299;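 also: growth inhibition of human NCI-H1299 cells, read out by a cell viability assay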
Description: SANGER: Inhibition of human NCI-H1299 cell growth in a cell viability assay.

[30] = system: NCI-H1395; details: Homo sapiens, NCI-H1395;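 also: cell viability assay read-out quantifying reduced proliferation of human NCI-H1395 cells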
Description: SANGER: Inhibition of human NCI-H1395 cell growth in a cell viability assay.

[31] = system: NKM-1; details: Homo sapiens, NKM-1;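 also: growth inhibition of NKM-1 cells, read out with a cell viability assay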
Description: SANGER: Inhibition of human NKM-1 cell growth in a cell viability assay.

[32] = system: RKO; details: Homo sapiens, RKO;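 also: growth inhibition of human RKO cells, read out with a cell viability assay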
Description: SANGER: Inhibition of human RKO cell growth in a cell viability assay.

[33] = system: SBC-1; details: Homo sapiens, SBC-1;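 also: cell viability assay measuring growth inhibition of the SBC-1 cell line, IC50 being the concentration that halves growth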
Description: SANGER: Inhibition of human SBC-1 cell growth in a cell viability assay.

[34] = system: SCH; details: Homo sapiens, SCH;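 also: growth inhibition of human SCH cells, read out in a cell viability assay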
Description: SANGER: Inhibition of human SCH cell growth in a cell viability assay.

[35] = system: SF-126; details: Homo sapiens, SF-126;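 also: growth inhibition of human SF126 cells, read out with a cell viability assay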
Description: SANGER: Inhibition of human SF126 cell growth in a cell viability assay.

[36] = system: SJSA-1; details: Homo sapiens, SJSA-1;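 also: growth inhibition of human SJSA-1 cells, read out through a cell viability measurement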
Description: SANGER: Inhibition of human SJSA-1 cell growth in a cell viability assay.

[37] = system: SK-N-DZ; details: Homo sapiens, SK-N-DZ;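 also: growth inhibition of the cancer cell line, read out through a viability assay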
Description: SANGER: Inhibition of human SK-N-DZ cell growth in a cell viability assay.

[38] = system: SK-PN-DW; details: Homo sapiens, SK-PN-DW;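 also: growth inhibition measured with a viability assay on these cells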
Description: SANGER: Inhibition of human SK-PN-DW cell growth in a cell viability assay.

[39] = system: 697; details: Homo sapiens
Description: SANGER: Inhibition of human 697 cell growth in a cell viability assay.

[40] = system: A253 cell line; details: Homo sapiens, A253;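 also: growth inhibition of A253 cells, read out with a cell viability assay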
Description: SANGER: Inhibition of human A253 cell growth in a cell viability assay.

[41] = system: A3-KAW; details: Homo sapiens, A3-KAW;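 also: growth inhibition of human A3-KAW cells, read out with a cell viability assay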
Description: SANGER: Inhibition of human A3-KAW cell growth in a cell viability assay.

[42] = system: ATN-1; details: Homo sapiens, ATN-1;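 also: growth inhibition of human ATN-1 cells, read out with a cell viability assay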
Description: SANGER: Inhibition of human ATN-1 cell growth in a cell viability assay.

[43] = system: TE-12; details: Homo sapiens, TE-12;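 also: growth inhibition of TE-12 cells, read out by a cell viability assay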
Description: SANGER: Inhibition of human TE-12 cell growth in a cell viability assay.

[44] = system: TE-5; details: Homo sapiens, TE-5;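 also: inhibition of cell growth, read out by a cell viability assay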
Description: SANGER: Inhibition of human TE-5 cell growth in a cell viability assay.

[45] = system: TE-8; details: Homo sapiens, TE-8;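 also: growth inhibition of TE-8 cells, measured with a cell viability readout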
Description: SANGER: Inhibition of human TE-8 cell growth in a cell viability assay.

[46] = system: TGW; details: Homo sapiens, TGW;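 also: growth inhibition of human TGW cells, read out with a cell viability assay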
Description: SANGER: Inhibition of human TGW cell growth in a cell viability assay.

[47] = system: U-266; details: Homo sapiens, U-266
Description: SANGER: Inhibition of human U-266 cell growth in a cell viability assay.

[48] = system: HC-1; details: Homo sapiens, HC-1;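 also: growth inhibition of HC-1 cells measured by a cell viability assay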
Description: SANGER: Inhibition of human HC-1 cell growth in a cell viability assay.

[49] = system: NCI-H2126; details: Homo sapiens, NCI-H2126;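 also: growth inhibition of the cancer cell line, determined with a cell viability readout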
Description: SANGER: Inhibition of human NCI-H2126 cell growth in a cell viability assay.

[50] = system: SK-UT-1; details: Homo sapiens, SK-UT-1;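 also: growth inhibition of SK-UT-1 cells, measured by a cell viability assay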
Description: SANGER: Inhibition of human SK-UT-1 cell growth in a cell viability assay.

## Cn1cnc2c(F)c(Nc3ccc(Br)cc3Cl)c(C(=O)NOCCO)cc21 [SELUMETINIB]
[1]
  IC50: > 4 µM
[2]
  IC50: > 4 µM
[3]
  IC50: > 4 µM
[4]
  IC50: > 4 µM
[5]
  IC50: > 4 µM
[6]
  IC50: > 4 µM
[7]
  IC50: > 4 µM
[8]
  IC50: > 4 µM
[9]
  IC50: > 4 µM
[10]
  IC50: 0.145 µM
[11]
  IC50: 2.48 µM
[12]
  IC50: > 4 µM
[13]
  IC50: > 4 µM
[14]
  IC50: 0.0246 µM
[15]
  IC50: > 4 µM
[16]
  IC50: > 4 µM
[17]
  IC50: 0.456 µM
[18]
  IC50: 0.0938 µM
[19]
  IC50: > 4 µM
[20]
  IC50: > 4 µM
[21]
  IC50: > 4 µM
[22]
  IC50: > 4 µM
[23]
  IC50: > 4 µM
[24]
  IC50: 3.32 µM
[25]
  IC50: > 4 µM
[26]
  IC50: > 4 µM
[27]
  IC50: > 4 µM
[28]
  IC50: > 4 µM
[29]
  IC50: > 4 µM
[30]
  IC50: > 4 µM
[31]
  IC50: 0.386 µM
[32]
  IC50: 0.248 µM
[33]
  IC50: > 4 µM
[34]
  IC50: > 4 µM
[35]
  IC50: > 4 µM
[36]
  IC50: 3.78 µM
[37]
  IC50: > 4 µM
[38]
  IC50: > 4 µM
[39]
  IC50: > 4 µM
[40]
  IC50: > 4 µM
[41]
  IC50: 3.91 µM
[42]
  IC50: > 4 µM
[43]
  IC50: > 4 µM
[44]
  IC50: > 4 µM
[45]
  IC50: > 4 µM
[46]
  IC50: > 4 µM
[47]
  IC50: 0.488 µM

## Nc1cccc2c1CN(C1CCC(=O)NC1=O)C2=O (stereo not given) [LENALIDOMIDE]
[1]
  IC50: > 5 µM
[2]
  IC50: > 5 µM
[3]
  IC50: > 5 µM
[4]
  IC50: > 5 µM
[5]
  IC50: > 5 µM
[6]
  IC50: > 5 µM
[7]
  IC50: > 5 µM
[8]
  IC50: > 5 µM
[9]
  IC50: > 5 µM
[10]
  IC50: 4.11 µM
[48]
  IC50: > 5 µM
[11]
  IC50: > 5 µM
[12]
  IC50: > 5 µM
[13]
  IC50: > 5 µM
[14]
  IC50: > 5 µM
[15]
  IC50: > 5 µM
[16]
  IC50: > 5 µM
[17]
  IC50: > 5 µM
[18]
  IC50: > 5 µM
[19]
  IC50: > 5 µM
[20]
  IC50: > 5 µM
[21]
  IC50: > 5 µM
[22]
  IC50: > 5 µM
[23]
  IC50: > 5 µM
[24]
  IC50: > 5 µM
[25]
  IC50: > 5 µM
[26]
  IC50: > 5 µM
[27]
  IC50: > 5 µM
[28]
  IC50: > 5 µM
[29]
  IC50: > 5 µM
[30]
  IC50: > 5 µM
[49]
  IC50: > 5 µM
[31]
  IC50: > 5 µM
[32]
  IC50: > 5 µM
[33]
  IC50: > 5 µM
[34]
  IC50: > 5 µM
[35]
  IC50: > 5 µM
[36]
  IC50: > 5 µM
[37]
  IC50: > 5 µM
[38]
  IC50: > 5 µM
[50]
  IC50: > 5 µM
[39]
  IC50: > 5 µM
[41]
  IC50: > 5 µM
[42]
  IC50: > 5 µM
[43]
  IC50: > 5 µM
[44]
  IC50: > 5 µM
[45]
  IC50: > 5 µM
[47]
  IC50: > 5 µM
